Laboratory results: paper PMC9072872, “Structure-based design of nucleoside-derived analogues as sulfotransferase inhibitors” (RSC Advances, 2019)

Tests used:
TPST1 = molecular target: T1, TPST1 (Homo sapiens, UniProt O60507); experiment: Microfluidic mobility shift sulfation assay, TPST1 (fluorescent CC4-tide substrate); assay type: biochemical; conditions: for IC50: read-out: IC50 against TPST1
T1 construct: Human TPST1 (residues Lys43-Leu360) enzyme was purified as a recombinant protein; made in house
T1 sequence (O60507 43-360): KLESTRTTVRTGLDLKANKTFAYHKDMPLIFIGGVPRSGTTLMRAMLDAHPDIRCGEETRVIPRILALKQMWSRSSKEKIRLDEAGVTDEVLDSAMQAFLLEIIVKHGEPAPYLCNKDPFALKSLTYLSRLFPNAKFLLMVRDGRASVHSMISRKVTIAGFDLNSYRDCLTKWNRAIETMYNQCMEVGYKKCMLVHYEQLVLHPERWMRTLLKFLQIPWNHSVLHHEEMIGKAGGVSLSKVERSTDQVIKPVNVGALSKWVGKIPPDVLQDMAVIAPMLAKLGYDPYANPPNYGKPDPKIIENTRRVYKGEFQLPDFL
Procedure: (§1) Compounds were initially screened at 400 μM in the presence 20 nM HS2ST and 0.1 μM TPST1 respectively.
Fig. 4 Summary of enzymatic inhibition assays against HS2ST and TPST1. (A) Enzymatic analysis of HS2ST1 inhibition by a panel of PAP- and PAPS-mimetic compounds. […] HS2ST sulfotransferase activity was assayed using a fluorescent hexasaccharide substrate (2 μM) and normalised to DMSO (4% v/v) or buffer control. Data shown is mean and SD of 4 repeat experiments. (B) Full dose–response curves for selected compounds. […] HS2ST activity calculated as previously described. Data from two independent experiments are combined. (C) Enzymatic analysis of TPST1 inhibition by a panel of PAP- and PAPS-mimetic compounds. […] TPST1 activity was measured using fluorescently-labelled CC4-tide (2 μM) and normalised to DMSO (4% v/v) or buffer control. (D) Full dose–response curves for selected compounds. […] TPST1 activity was measured using CC4-tide and normalised to DMSO or buffer controls as previously described. The data shown is from duplicate experiments. […]
TPST1 peptide substrate (CC4-tide, 5-FAM-EDFED YEFDG-CONH2) was synthesised using solid-phase Fmoc chemistry (Pepceuticals, Leicester, UK). All standard laboratory biochemicals, were purchased from Sigma, and were of the highest analytical quality.
(§2) 5'-phosphosulfate, lithium salt hydrate, PAP (adenosine 3',5'-diphosphate, disodium salt), CoA (coenzymeA, sodium salt), ATP (adenosine 5’-triphosphate, disodium salt hydrate) were all purchased from Sigma and stored at -80 °C to minimise degradation.
Recombinant Protein Production and SDS-PAGE
Human TPST1 (residues Lys43-Leu360) enzyme was purified as a recombinant protein containing an N-terminal 6xHis tag as previously described. […]
(§3) Microfluidics-Based Sulfation Assay
(§4) Non-radioactive microfluidic mobility shift peptide and carbohydrate sulfation assays were performed in solution with a 12-sipper chip coated with SR8 reagent and a Perkin Elmer EZ Reader II system 8 using an EDTA-based separation buffer and real-time kinetic evaluation of substrate sulfation. Pressure and voltage settings were adjusted manually to afford optimal separation of the sulfated product and non-sulfated substrate, with a sample (sip) volume of 20 nL, and total assay tim es appropriate for the experiment. The fluorophore tagged TPST1 peptide substrate and HS2ST1 glycan substrate where detected by the EZ Reader via LED-induced fluorescence.
(§5) Individual sulfation assays were assembled in a 384 well plate in a volume of 80 µL in the presence of […]
(§6) and 5 mM MgCl2. The degree of substrate sulfation was directly calculated using EZ Reader software by measuring the sulfo-product:non-sulfated substrate ratio at each time-point. The act ivity of the sulfotransferase enzymes in the presence of biochemicals and small molecule inhibitors was quantified in ‘kinetic mode’ by monitoring the amount of sulfated product generated over the assay time, relative to control assay with no additional inhibitor molecule (DMSO or buffer control). Data was normalized with respect to these control assays, with sulfate incorporation into the substr ate limited to ~ 20% to prevent depletion of PAPS and to ensure assay linearity. K m and IC50 values were determined by non-linear regression analysis with GraphPad Prism software. […]

HS2ST = molecular target: T2, HS2ST (Gallus gallus, UniProt Q76KB1); experiment: Microfluidic mobility shift sulfation assay, HS2ST (fluorescent hexasaccharide substrate); assay type: biochemical, chicken; conditions: for IC50: read-out: IC50 against HS2ST
T2 construct: made in house; host or cells: E. coli Rosetta-gami (DE3)
T2 sequence (Q76KB1 1-356): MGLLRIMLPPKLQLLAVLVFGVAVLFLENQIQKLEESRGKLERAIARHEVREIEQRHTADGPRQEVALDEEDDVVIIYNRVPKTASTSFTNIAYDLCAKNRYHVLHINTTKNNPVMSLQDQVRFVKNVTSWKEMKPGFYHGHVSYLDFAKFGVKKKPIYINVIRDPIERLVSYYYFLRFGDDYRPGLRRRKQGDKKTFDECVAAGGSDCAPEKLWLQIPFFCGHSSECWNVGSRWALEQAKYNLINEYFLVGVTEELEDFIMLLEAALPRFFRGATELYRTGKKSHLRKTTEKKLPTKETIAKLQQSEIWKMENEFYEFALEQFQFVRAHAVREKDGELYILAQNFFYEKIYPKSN
Procedure: as §1
Fig. 4 Summary of enzymatic inhibition assays against HS2ST and TPST1. (A) Enzymatic analysis of HS2ST1 inhibition by a panel of PAP- and PAPS-mimetic compounds. […] HS2ST sulfotransferase activity was assayed using a fluorescent hexasaccharide substrate (2 μM) and normalised to DMSO (4% v/v) or buffer control. Data shown is mean and SD of 4 repeat experiments. (B) Full dose–response curves for selected compounds. […] HS2ST activity calculated as previously described. Data from two independent experiments are combined. (C) Enzymatic analysis of TPST1 inhibition by a panel of PAP- and PAPS-mimetic compounds. […] TPST1 activity was measured using fluorescently-labelled CC4-tide (2 μM) and normalised to DMSO (4% v/v) or buffer control. (D) Full dose–response curves for selected compounds. […] TPST1 activity was measured using CC4-tide and normalised to DMSO or buffer controls as previously described. The data shown is from duplicate experiments.
N-sulfated, fluorescein-tagged HS2ST1 hexasaccharide glycan substrate (GlcNS-GlcA- GlcNS-IdoA-GlcNS-GlcA-fluorescein, where S=sulfation) containing L-IdoA at the third residue from the reducing end (to which a linker and the fluorophore were conjugated) was purchased from GLY CAN therapeutics. TPST1 peptide substrate (CC4-tide, 5-FAM-EDFED YEFDG-CONH2) was synthesised using solid-phase Fmoc chemistry (Pepceuticals, Leicester, UK). All standard laboratory biochemicals, were purchased from Sigma, and were of the highest analytical quality.
as §2
Recombinant Protein Production and SDS-PAGE […]
as §3, §4, §5, §6

IC50 (TPST1) [µM] | IC50 (HS2ST) [µM] | inhibitory activity against TPST1 (TPST1; compound 400 μM, TPST1 0.1 μM, PAPS 5 μM) | inhibitory activity against HS2ST (HS2ST; compound 400 μM, HS2ST 20 nM, PAPS 5 μM) | Structure (SMILES)
3.6 | 12.7 | – | – | Nc1ncnc2c1ncn2[C@H]1C[C@H](OP(=O)(O)O)[C@@H](COP(=O)(O)O)O1 [2′-deoxy-PAP]
– | – | inactive | inactive | Nc1ncnc2c1ncn2[C@H]1C[C@H](O)[C@@H](Cn2cc(P(=O)(O)O)nn2)O1 [Compound 11]
100 to 300 | 100 to 300 | – | – | Nc1ncnc2c1ncn2[C@H]1C[C@H](O)[C@@H](Cn2cc(P(=O)(O)OCc3ccccc3)nn2)O1 [Compound 13]
100 to 300 | 100 to 300 | – | – | Nc1ncnc2c1ncn2[C@H]1C[C@H](OP(=O)(O)O)[C@@H](Cn2cc(P(=O)(O)O)nn2)O1 [Compound 12]
